Experimental data from PubChem BioAssay AID248 (DTP/NCI, 2004).
Where “and” joins values, the source holds several entries; their conditions need not be identical. Equal entries are not always repeated. Inconclusive results and toxic doses are left out. No stated cut-off is given here; in the data, active means T/C of 150% or more; inactive means T/C below 125%.

System: L1210 leukemia ip in BDF1 mice, survival T/C
Test: NCI In Vivo Anticancer Drug Screen. Data for tumor model L1210 Leukemia (intraperitoneal) in B6D2F1 (BDF1) mice
Conditions: endpoint: mean survival time, higher = longer survival
Method in brief: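 Tumor cells were implanted, animals were treated, and survival was followed. The result divides the treated measurement by the vehicle-control measurement.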

[1] = dose: 50.0 mg/kg/injection, schedule: Q01DX001 (ip), vehicle: carboxymethylcellulose (CMC)
[2] = dose: 100.0 mg/kg/injection, schedule: Q01DX001 (ip), vehicle: carboxymethylcellulose (CMC)
[3] = dose: 200.0 mg/kg/injection, schedule: Q01DX001 (ip), vehicle: carboxymethylcellulose (CMC)
[4] = dose: 400.0 mg/kg/injection, schedule: Q01DX001 (ip), vehicle: carboxymethylcellulose (CMC)
[5] = dose: 50.0 mg/kg/injection, schedule: Q01DX009 (ip), vehicle: Klucel (hydroxypropylcellulose) (HPC)
[6] = dose: 100.0 mg/kg/injection, schedule: Q01DX009 (ip), vehicle: Klucel (hydroxypropylcellulose) (HPC)
[7] = dose: 200.0 mg/kg/injection, schedule: Q01DX009 (ip), vehicle: Klucel (hydroxypropylcellulose) (HPC)
[8] = dose: 100.0 mg/kg/injection, schedule: Q04DX003 (ip), vehicle: Klucel (hydroxypropylcellulose) (HPC)
[9] = dose: 50.0 mg/kg/injection, schedule: Q04DX003 (ip), vehicle: saline
[10] = dose: 100.0 mg/kg/injection, schedule: Q01DX001 (ip), vehicle: saline
[11] = dose: 100.0 mg/kg/injection, schedule: Q04DX003 (ip), vehicle: saline
[12] = dose: 200.0 mg/kg/injection, schedule: Q04DX003 (ip), vehicle: saline

Measured: T/C

CC(=O)OCC(=O)[C@@]1(O)CC[C@H]2[C@@H]3CCC4=CC(=O)CC[C@]4(C)C3=CC[C@@]21C
inactive: dose: 12.5 mg/kg/injection, schedule: Q04DX003 (ip), vehicle: saline with Tween-80 95 % of control | dose: 25.0 mg/kg/injection, schedule: Q04DX003 (ip), vehicle: saline with Tween-80 93 % of control | dose: 50.0 mg/kg/injection, schedule: Q04DX003 (ip), vehicle: saline with Tween-80 90 % of control

COC(=O)c1c(C)cc(C)c(C(C)=O)c1O
inactive: [1] 96 % of control | [2] 102 % of control | [3] 104 % of control | [4] 107 % of control

O=c1[nH]c(CC(O)C(Cl)(Cl)Cl)nc2ccccc12 (stereo not given)
inactive: [5] 100 % of control | [6] 100 % of control | [7] 103 % of control

Oc1ccccc1C1CCCCC1
inactive: dose: 12.5 mg/kg/injection, schedule: Q01DX009 (ip), vehicle: gum acacia 102 % of control | dose: 25.0 mg/kg/injection, schedule: Q01DX009 (ip), vehicle: gum acacia 100 % of control | dose: 50.0 mg/kg/injection, schedule: Q01DX009 (ip), vehicle: gum acacia 98 % of control

C(=C\c1ccccc1)/C=N/Nc1nnc(N/N=C/C=C/c2ccccc2)c2ccccc12
inactive: [1] 102 % of control | [2] 94 % of control | [3] 102 % of control | [4] 90 % of control

N#Cc1cn(C2OC(CO)C(O)C2O)c2nc(Cl)nc(N)c12 (stereo not given)
inactive: dose: 7.5 mg/kg/injection, schedule: Q01DX005 (ip), vehicle: saline 114 % of control | dose: 12.5 mg/kg/injection, schedule: Q01DX005 (ip), vehicle: saline 119 % of control | dose: 12.5 mg/kg/injection, schedule: Q01DX009 (ip), vehicle: saline 117 % of control | dose: 21.0 mg/kg/injection, schedule: Q01DX005 (ip), vehicle: saline 108 % of control | dose: 25.0 mg/kg/injection, schedule: Q01DX005 (ip), vehicle: saline 118 % of control | dose: 25.0 mg/kg/injection, schedule: Q01DX009 (ip), vehicle: saline 98 % of control

Cc1ccc(N)cn1
inactive: dose: 25.0 mg/kg/injection, schedule: Q01DX009 (ip), vehicle: Klucel (hydroxypropylcellulose) (HPC) 97 % of control | dose: 25.0 mg/kg/injection, schedule: Q04DX003 (ip), vehicle: Klucel (hydroxypropylcellulose) (HPC) 102 % of control | [5] 100 % of control | dose: 50.0 mg/kg/injection, schedule: Q04DX003 (ip), vehicle: Klucel (hydroxypropylcellulose) (HPC) 101 % of control | [6] 90 % of control | [8] 98 % of control

O=C(Nc1ccc(C(=O)Nc2nccs2)cc1)c1ccc(C(=O)Nc2ccc(C(=O)Nc3nccs3)cc2)c(Cl)c1
inactive: dose: 4.4 mg/kg/injection, schedule: Q01DX Z (ip), vehicle: saline 106 % of control | dose: 6.6 mg/kg/injection, schedule: Q01DX Z (ip), vehicle: saline 97 % of control | dose: 10.0 mg/kg/injection, schedule: Q01DX Z (ip), vehicle: saline 97 % of control | dose: 15.0 mg/kg/injection, schedule: Q01DX Z (ip), vehicle: saline 93 % of control and 97 % of control and 106 % of control | dose: 22.5 mg/kg/injection, schedule: Q01DX Z (ip), vehicle: saline 104 % of control | dose: 30.0 mg/kg/injection, schedule: Q01DX Z (ip), vehicle: saline 100 % of control | dose: 33.75 mg/kg/injection, schedule: Q01DX Z (ip), vehicle: saline 111 % of control | dose: 50.6 mg/kg/injection, schedule: Q01DX Z (ip), vehicle: saline 93 % of control | dose: 60.0 mg/kg/injection, schedule: Q01DX Z (ip), vehicle: saline 97 % of control | dose: 120.0 mg/kg/injection, schedule: Q01DX Z (ip), vehicle: saline 98 % of control and 100 % of control | dose: 180.0 mg/kg/injection, schedule: Q01DX Z (ip), vehicle: saline 93 % of control | dose: 270.0 mg/kg/injection, schedule: Q01DX Z (ip), vehicle: saline 92 % of control | dose: 400.0 mg/kg/injection, schedule: Q01DX Z (ip), vehicle: saline 93 % of control

O=[N+]([O-])c1ccc(OP(=O)(Oc2ccc([N+](=O)[O-])cc2)Oc2ccc([N+](=O)[O-])cc2)cc1
inactive: dose: 100.0 mg/kg/injection, schedule: Q04DX003 (ip), vehicle: gum acacia 97 % of control and 107 % of control | dose: 200.0 mg/kg/injection, schedule: Q04DX003 (ip), vehicle: gum acacia 92 % of control and 103 % of control | dose: 400.0 mg/kg/injection, schedule: Q04DX003 (ip), vehicle: gum acacia 94 % of control and 95 % of control

Cc1ccc(NC(=O)OCC2CC3C=CC2C3)cc1 (stereo not given)
inactive: [6] 98 % of control | [7] 102 % of control | dose: 400.0 mg/kg/injection, schedule: Q01DX009 (ip), vehicle: Klucel (hydroxypropylcellulose) (HPC) 100 % of control

c1ccc2c(c1)Sc1ccccc1N2CCCN1CCCC1
inactive: dose: 6.25 mg/kg/injection, schedule: Q04DX003 (ip), vehicle: saline 108 % of control | dose: 12.5 mg/kg/injection, schedule: Q04DX003 (ip), vehicle: saline 105 % of control | dose: 25.0 mg/kg/injection, schedule: Q04DX003 (ip), vehicle: saline 116 % of control | dose: 50.0 mg/kg/injection, schedule: Q01DX001 (ip), vehicle: saline 108 % of control and 123 % of control | [9] 106 % of control | [10] 97 % of control and 103 % of control

CCC([NH-])=O.CCC([NH-])=O.[Pt+2]
inactive: dose: 100.0 mg/kg/injection, schedule: Q01DX009 (ip), vehicle: water 107 % of control | dose: 100.0 mg/kg/injection, schedule: Q04DX003 (ip), vehicle: water 101 % of control | dose: 200.0 mg/kg/injection, schedule: Q01DX009 (ip), vehicle: water 106 % of control | dose: 200.0 mg/kg/injection, schedule: Q04DX003 (ip), vehicle: water 108 % of control | dose: 400.0 mg/kg/injection, schedule: Q04DX003 (ip), vehicle: water 110 % of control

O=[N+]([O-])c1ccc(C=Nc2ccccc2)s1
inactive: [8] 98 % of control | dose: 200.0 mg/kg/injection, schedule: Q04DX003 (ip), vehicle: Klucel (hydroxypropylcellulose) (HPC) 93 % of control

CCCCCCCCCCCCCC(S(=O)(=O)CC)S(=O)(=O)CC
inactive: dose: 100.0 mg/kg/injection, schedule: Q01DX001 (ip), vehicle: Klucel (hydroxypropylcellulose) (HPC) 89 % of control | dose: 200.0 mg/kg/injection, schedule: Q01DX001 (ip), vehicle: Klucel (hydroxypropylcellulose) (HPC) 87 % of control | dose: 400.0 mg/kg/injection, schedule: Q01DX001 (ip), vehicle: Klucel (hydroxypropylcellulose) (HPC) 87 % of control

C1CCC2C(C1)CCC1C2OCN2CCCCC12 (stereo not given)
inactive: dose: 100.0 mg/kg/injection, schedule: Q04DX002 (ip), vehicle: saline with Tween-80 104 % of control | [11] 98 % of control | dose: 200.0 mg/kg/injection, schedule: Q04DX002 (ip), vehicle: saline with Tween-80 101 % of control | [12] 98 % of control | dose: 400.0 mg/kg/injection, schedule: Q04DX002 (ip), vehicle: saline with Tween-80 96 % of control | dose: 400.0 mg/kg/injection, schedule: Q04DX003 (ip), vehicle: saline 98 % of control

C=CC1CNCCC1CC(=O)OCC (stereo not given)
inactive: [9] 97 % of control | [10] 95 % of control | [11] 95 % of control | dose: 200.0 mg/kg/injection, schedule: Q01DX001 (ip), vehicle: saline 91 % of control | [12] 111 % of control
